The results in this text go back to patent US8586739B2, “Heterocyclic compounds and their uses” (Amgen Inc., priority 2007, dated 2013).

One may read the IC50 as the midpoint of a concentration-inhibition curve.

For assay [1], the target named is T1, PI3Kδ (Homo sapiens, UniProt O00329).
T1 construct: Full length p110 subunits of PI3k α, β and δ, N-terminally labeled with polyHis tag; polyHis (N); made in house; host or cells: Sf9 insect cells (baculovirus)
The assay can be described thus: In vitro enzyme assay of recombinant PI3K (residual ATP bioluminescence). Format: biochemical. Here is the method: Recombinant Expression of PI3Ks
Full length p110 subunits of PI3k α, β and δ, N-terminally labeled with polyHis tag, were coexpressed with p85 with Baculo virus expression vectors in sf9 insect cells. P110/p85 heterodimers were purified by sequential Ni-NTA, Q-HP, Superdex-100 chromatography. Purified α, β and δ isozymes were stored at −20° C. in 20 mM Tris, pH 8, 0.2M NaCl, 50% glycerol, 5 mM DTT, 2 mM Na cholate. Truncated PI3Kγ, residues 114-1102, N-terminally labeled with polyHis tag, was expessed with Baculo virus in Hi5 insect cells. The γ isozyme was purified by sequential Ni-NTA, Superdex-200, Q-HP chromatography. The γ isozyme was stored frozen at −80° C. in NaH2PO4, pH 8, 0.2M NaCl, 1% ethylene glycol, 2 mM β-mercaptoethanol.
Assays were performed in 25 μL with the above final concentrations of components in white polyproplyene plates (Costar 3355). Phospatidyl inositol phosphoacceptor, PtdIns(4,5)P2 P4508, was from Echelon Biosciences. The ATPase activity of the alpha and gamma isozymes was not greatly stimulated by PtdIns(4,5)P2 under these conditions and was therefore omitted from the assay of these isozymes. Test compounds were dissolved in dimethyl sulfoxide and diluted with three-fold serial dilutions. The compound in DMSO (1 μL) was added per test well, and the inhibition relative to reactions containing no compound, with and without enzyme was determined. After assay incubation at room temperature, the reaction was stopped and residual ATP determined by addition of an equal volume of a commercial ATP bioluminescence kit (Perkin Elmer EasyLite) according to the manufacturer's instructions, and detected using a AnalystGT luminometer.

Assay [2] deals with human B cells. As to the kind of experiment: Human B cells proliferation stimulated by anti-IgM (3H thymidine). It counts as cell-based. Summed up: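 Human B cells were magnetically purified from PBMCs and plated at 50000/well in DMEM+5% FCS. Medium containing 250 ng/mL CD40L-LZ and 2 μg/mL anti-IgM was combined with PI3K inhibitor medium, and cells were incubated 72 h at 37° C. Proliferation was read by 0.5-1 uCi/well ^3H thymidine pulse (~18 h).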

Setting [3] is: Homo sapiens, B-cell, 72 h, purified human B cells, anti-Human IgM + CD40L-LZ.

T1 sequence (O00329 whole entry): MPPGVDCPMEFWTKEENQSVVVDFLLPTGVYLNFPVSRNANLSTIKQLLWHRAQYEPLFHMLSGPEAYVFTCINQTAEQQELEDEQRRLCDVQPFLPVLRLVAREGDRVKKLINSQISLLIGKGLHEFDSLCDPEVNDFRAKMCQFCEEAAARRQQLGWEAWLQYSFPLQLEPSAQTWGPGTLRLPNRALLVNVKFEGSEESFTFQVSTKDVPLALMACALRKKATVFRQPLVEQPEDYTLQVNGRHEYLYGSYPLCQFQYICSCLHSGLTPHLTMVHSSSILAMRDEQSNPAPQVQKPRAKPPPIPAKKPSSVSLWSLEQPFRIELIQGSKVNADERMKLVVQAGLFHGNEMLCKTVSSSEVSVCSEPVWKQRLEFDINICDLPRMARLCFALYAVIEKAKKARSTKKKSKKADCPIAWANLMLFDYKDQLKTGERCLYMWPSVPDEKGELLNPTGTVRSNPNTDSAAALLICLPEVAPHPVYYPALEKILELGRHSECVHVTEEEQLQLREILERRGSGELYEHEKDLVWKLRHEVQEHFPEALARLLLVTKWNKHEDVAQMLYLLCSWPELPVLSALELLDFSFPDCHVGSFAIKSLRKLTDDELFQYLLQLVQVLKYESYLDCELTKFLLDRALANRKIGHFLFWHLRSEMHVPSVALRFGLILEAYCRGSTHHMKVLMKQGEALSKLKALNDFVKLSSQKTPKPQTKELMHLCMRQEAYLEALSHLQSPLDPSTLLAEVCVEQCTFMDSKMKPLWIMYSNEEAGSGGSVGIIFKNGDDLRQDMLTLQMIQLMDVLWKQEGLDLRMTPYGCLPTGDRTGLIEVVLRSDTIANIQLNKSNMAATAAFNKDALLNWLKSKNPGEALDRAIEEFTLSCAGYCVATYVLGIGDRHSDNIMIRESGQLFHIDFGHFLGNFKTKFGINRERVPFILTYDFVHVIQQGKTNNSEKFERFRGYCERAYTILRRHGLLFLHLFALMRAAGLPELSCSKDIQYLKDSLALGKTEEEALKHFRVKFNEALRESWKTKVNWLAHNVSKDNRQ
T1 sequence (P27986 whole entry partner): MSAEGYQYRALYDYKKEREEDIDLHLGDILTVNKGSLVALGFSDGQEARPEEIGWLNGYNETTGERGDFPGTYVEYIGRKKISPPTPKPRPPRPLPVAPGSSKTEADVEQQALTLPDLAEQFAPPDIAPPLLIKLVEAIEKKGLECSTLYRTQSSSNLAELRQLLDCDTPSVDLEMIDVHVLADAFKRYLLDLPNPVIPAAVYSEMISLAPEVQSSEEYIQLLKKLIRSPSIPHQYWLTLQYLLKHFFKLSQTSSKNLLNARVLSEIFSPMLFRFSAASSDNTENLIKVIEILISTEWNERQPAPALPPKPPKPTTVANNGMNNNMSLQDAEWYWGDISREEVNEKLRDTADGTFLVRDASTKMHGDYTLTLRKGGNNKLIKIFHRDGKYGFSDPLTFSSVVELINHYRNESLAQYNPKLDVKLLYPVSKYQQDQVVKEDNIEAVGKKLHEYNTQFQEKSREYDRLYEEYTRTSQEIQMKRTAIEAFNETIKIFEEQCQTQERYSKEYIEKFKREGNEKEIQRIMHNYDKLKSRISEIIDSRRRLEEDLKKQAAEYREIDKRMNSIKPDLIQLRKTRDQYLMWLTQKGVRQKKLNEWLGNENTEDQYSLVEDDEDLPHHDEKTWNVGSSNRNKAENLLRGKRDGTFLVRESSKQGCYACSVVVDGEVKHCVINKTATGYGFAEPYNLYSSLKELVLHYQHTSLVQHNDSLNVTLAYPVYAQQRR

For the molecule `Fc1ccc(OCc2ccccc2)c(-c2nc3c(Cl)cccc3cc2CNc2ncnc3[nH]cnc23)c1` [Example 39, N-((2-(2-(Benzyloxy)-5-fluorophenyl)-8-chloroquinolin-3-yl)methyl)-9H-purin-6-amine], the concentration for half-maximal inhibition (IC50) in assay [1] was determined as 31 nM.

In the case of `Cc1cccc2nc(-c3ccccc3Cl)c(CNc3ncnc4[nH]cnc34)nc12` [Example 18, N-((3-(2-Chlorophenyl)-8-methylquinoxalin-2-yl)methyl)-9H-purin-6-amine], the IC50 in assay [1] turned out to be 325 nM.

`C[C@H](Nc1ncnc2[nH]cnc12)c1cc2ccc(F)cc2nc1-c1cccs1` [Example 46, N-((S)-1-(7-Fluoro-2-(thiophen-2-yl)quinolin-3-yl)ethyl)-9H-purin-6-amine]: the IC50 in assay [1] was 8 nM.

`Cc1ccccc1-c1nc2c(C)cccc2cc1CNc1nc(N)nc2[nH]cnc12` [Example 13, N6-((8-Methyl-2-o-tolylquinolin-3-yl)methyl)-9H-purine-2,6-diamine]: in assay [1], the half-inhibitory concentration (IC50) amounted to 82 nM.

As to `Cc1ccccc1-c1nc2c(C)cccc2cc1C(C)Oc1ncnc2[nH]cnc12` (stereo not shown) [Example 5, 3-(1-(9H-Purin-6-yloxy)ethyl)-8-methyl-2-o-tolylquinoline], the IC50 in assay [1] is 12 nM.

On to `COc1cccc(F)c1-c1nc2c(C)cccc2cc1CNc1ncnc2[nH]cnc12` [Example 17, N-((2-(2-Fluoro-6-methoxyphenyl)-8-methylquinolin-3-yl)methyl)-9H-purin-6-amine], for which the IC50 in assay [1] amounted to 651 nM.

For the molecule `Clc1cccc2cc(CNc3ncnc4[nH]cnc34)c(Oc3ccccc3)nc12` [Example 30, N-((8-Chloro-2-phenoxyquinolin-3-yl)methyl)-9H-purin-6-amine], the IC50 in assay [1] was 125 nM.

Consider `C[C@H](Nc1ncnc2[nH]cnc12)c1cc2cccc(Cl)c2nc1-c1cccc(F)c1` [N-((S)-1-(8-Chloro-2-(3-fluorophenyl)quinolin-3-yl)ethyl)-9H-purin-6-amine], for which, in assay [1], the IC50 came out at 6 nM.

Take `C=CCC(Oc1ncnc2[nH]ccc12)c1cc2cccc(C)c2nc1-c1ccccc1Cl` (stereo not shown) [Example 9, 3-(1-(7H-Pyrrolo[2,3-d]pyrimidin-4-yloxy)but-3-enyl)-2-(2-chlorophenyl)-8-methylquinoline]: in assay [1], the concentration for half-maximal inhibition (IC50) worked out at 28 nM.

`Clc1ccccc1-c1nc2c(Cl)cccc2cc1CNc1ncnc2[nH]cnc12` [Example 2, N-((8-Chloro-2-(2-chlorophenyl)quinolin-3-yl)-methyl)-9H-purin-6-amine]: the half-inhibitory concentration (IC50) in assay [1] was found to be 68 nM.

With `C[C@H](Nc1ncnc2[nH]cnc12)c1cc2cccc(Cl)c2nc1-c1cscn1` [Example 44, N-((S)-1-(8-Chloro-2-(thiazol-4-yl)quinolin-3-yl)ethyl)-9H-purin-6-amine], the IC50 in assay [1] is 16 nM.

For the molecule `Cc1cccc2cc(COc3ncnc4[nH]ccc34)c(-c3ccccc3)nc12` [Example 15, 3-((7H-Pyrrolo[2,3-d]pyrimidin-4-yloxy)methyl)-8-methyl-2-phenylquinoline], in assay [1], the half-inhibitory concentration (IC50) was 68 nM.

For the molecule `CC[C@H](Nc1ncnc2[nH]cnc12)c1cc2cccc(Cl)c2nc1-c1cccc(F)c1` [Example 42, N-((S)-1-(8-Chloro-2-(3-fluorophenyl)quinolin-3-yl)propyl)-9H-purin-6-amine], in assay [1], the concentration for half-maximal inhibition (IC50) amounted to 13 nM.

Take `Fc1ccc(OCc2cccnc2)c(-c2nc3c(Cl)cccc3cc2CNc2ncnc3[nH]cnc23)c1` [N-((8-chloro-2-(5-fluoro-2-(3-pyridinylmethoxy)phenyl)-3-quinolinyl)methyl)-9H-purin-6-amine]: the half-inhibitory concentration (IC50) in assay [2] (setting [3]) was 178 nM.

Regarding `C[C@@H](Nc1ncnc2[nH]cnc12)c1cc2c(Cl)cccc2nc1-c1cccc(F)c1` [N-((R)-1-(5-Chloro-2-(3-fluorophenyl)quinolin-3-yl)ethyl)-9H-purin-6-amine], in assay [2] (setting [3]), the IC50 came to 33.6 nM.

Take `C[C@@H](Nc1ncnc2[nH]cnc12)c1nc2cccc(Cl)c2cc1-c1cccc(F)c1` [N-((1R)-1-(5-chloro-3-(3-fluorophenyl)-2-quinolinyl)ethyl)-9H-purin-6-amine]: in assay [2] (setting [3]), the IC50 turned out to be 21 nM.

Turning to `C[C@H](Nc1ncnc2[nH]cnc12)c1cc2cccc(Cl)c2nc1-c1cc(F)ccc1OCc1ccccc1` [N-((1S)-1-(2-(2-(benzyloxy)-5-fluorophenyl)-8-chloro-3-quinolinyl)ethyl)-9H-purin-6-amine], the half-inhibitory concentration (IC50) in assay [2] (setting [3]) is 16.8 nM.

Turning to `C[C@H](Nc1ncnc2[nH]cnc12)c1nc2cccc(C(F)(F)F)c2nc1-c1ccccc1Cl` [N-((1S)-1-(3-(2-chlorophenyl)-5-(trifluoromethyl)-2-quinoxalinyl)ethyl)-9H-purin-6-amine], in assay [2] (setting [3]), the concentration for half-maximal inhibition (IC50) turned out to be 10.4 nM.

With `C[C@H](Nc1ncnc2nc[nH]c12)c1cc2cccc(F)c2nc1-c1cccc(F)c1` [N-((S)-1-(8-fluoro-2-(3-fluorophenyl)quinolin-3-yl)ethyl)-7H-purin-6-amine], the half-maximal inhibitory concentration (IC50) in assay [2] (setting [3]) is 5.15 nM.

Consider `Cc1ncccc1-c1nc2c(Cl)cccc2cc1[C@H](C)Nc1ncnc2[nH]cnc12` [N-((1S)-1-(8-chloro-2-(2-methyl-3-pyridinyl)-3-quinolinyl)ethyl)-9H-purin-6-amine], for which the IC50 in assay [2] (setting [3]) came to 4.34 nM.

As to `Clc1cccc2cc(CNc3ncnc4[nH]cnc34)c(Oc3ccccc3)nc12` [N-((8-chloro-2-phenoxy-3-quinolinyl)methyl)-9H-purin-6-amine], the IC50 in assay [2] (setting [3]) was determined as 26.2 nM.

For the molecule `Clc1cccc2cc(CNc3ncnc4[nH]cnc34)c(-c3ccccn3)nc12` [N-((8-chloro-2-(2-pyridinyl)-3-quinolinyl)methyl)-9H-purin-6-amine], the IC50 in assay [2] (setting [3]) turned out to be 34.1 nM.

For the molecule `Cc1cccnc1-c1nc2c(Cl)cccc2cc1[C@H](C)Nc1ncnc2[nH]cnc12` [N-((1S)-1-(8-chloro-2-(3-methyl-2-pyridinyl)-3-quinolinyl)ethyl)-9H-purin-6-amine], the IC50 in assay [2] (setting [3]) is 33.2 nM.

`Cc1cc(C)n(-c2nc3c(Cl)cccc3cc2[C@H](C)Nc2ncnc3[nH]cnc23)n1` [N-((1S)-1-(8-chloro-2-(3,5-dimethyl-1H-pyrazol-1-yl)-3-quinolinyl)ethyl)-9H-purin-6-amine]: the 50% inhibitory concentration (IC50) in assay [2] (setting [3]) came out at 2.63 nM.

On to `Fc1cccc(-c2nc3c(Br)cccc3cc2CNc2ncnc3[nH]cnc23)c1` [N-((8-Bromo-2-(3-fluorophenyl)quinolin-3-yl)methyl)-9H-purin-6-amine], for which, in assay [2] (setting [3]), the half-inhibitory concentration (IC50) came to 68.8 nM.

As for `Clc1cccc2cc(CNc3ncnc4[nH]cnc34)c(-c3cccs3)nc12` [N-((8-chloro-2-(2-thiophenyl)-3-quinolinyl)methyl)-9H-purin-6-amine], the IC50 in assay [2] (setting [3]) came out at 104 nM.

As to `Clc1cccc2cc(CNc3ncnc4[nH]cnc34)c(-c3cn[nH]c3)nc12` [N-((8-chloro-2-(1H-pyrazol-4-yl)-3-quinolinyl)methyl)-9H-purin-6-amine], the IC50 in assay [2] (setting [3]) turned out to be 158 nM.

`C[C@H](Nc1ncnc2[nH]cnc12)c1cc2ccc(F)cc2[n+]([O-])c1-c1ccccc1` [N-((1S)-1-(7-fluoro-1-oxido-2-phenyl-3-quinolinyl)ethyl)-9H-purin-6-amine]: in assay [2] (setting [3]), the IC50 is 4.64 nM.

Regarding `C[C@H](Nc1ncnc2[nH]cnc12)c1cc2cccc(Cl)c2nc1-c1cncs1` [N-((S)-1-(8-Chloro-2-(thiazol-5-yl)quinolin-3-yl)ethyl)-9H-purin-6-amine], the half-maximal inhibitory concentration (IC50) in assay [2] (setting [3]) amounted to 21.9 nM.

Take `C[C@H](Nc1ncnc2[nH]cnc12)c1cc2ccc(F)cc2nc1-c1ccccc1Cl` [N-((1S)-1-(2-(2-chlorophenyl)-7-fluoro-3-quinolinyl)ethyl)-9H-purin-6-amine]: the IC50 in assay [2] (setting [3]) was 29 nM; in assay [2] (Homo sapiens, B-cell, purified human B cells, anti-Human IgM + CD40L-LZ, 72 h), 29 nM.

For the molecule `CC(C)c1ccccc1-c1nc2c(Cl)cccc2cc1CNc1ncnc2[nH]cnc12` [N-((8-chloro-2-(2-(1-methylethyl)phenyl)-3-quinolinyl)methyl)-9H-purin-6-amine], the 50% inhibitory concentration (IC50) in assay [2] (setting [3]) is 17.6 nM.

In the case of `CCc1ncc(F)cc1-c1nc2c(Cl)cccc2cc1[C@H](C)Nc1ncnc2[nH]cnc12` [N-((1S)-1-(8-chloro-2-(2-ethyl-5-fluoro-3-pyridinyl)-3-quinolinyl)ethyl)-9H-purin-6-amine], the IC50 in assay [2] (setting [3]) amounted to 3.84 nM.

Take `CC[C@H](Nc1ncnc2[nH]cnc12)c1cc2cccc(Cl)c2nc1-c1cccc(F)c1` [N-((1S)-1-(8-chloro-2-(3-fluorophenyl)-3-quinolinyl)propyl)-9H-purin-6-amine]: the half-maximal inhibitory concentration (IC50) in assay [2] (setting [3]) is 5.3 nM.

Consider `Clc1ccccc1-c1nc2c(I)cccc2nc1CNc1ncnc2[nH]cnc12` [N-((3-(2-Chlorophenyl)-5-iodoquinoxalin-2-yl)methyl)-9H-purin-6-amine], for which the IC50 in assay [2] (setting [3]) stood at 88.4 nM.

Turning to `C[C@H](Nc1ncnc2[nH]cnc12)c1cc2cccc(C#N)c2nc1-c1ccccn1` [3-((1S)-1-(9H-purin-6-ylamino)ethyl)-2-(2-pyridinyl)-8-quinolinecarbonitrile], in assay [2] (setting [3]), the IC50 turned out to be 46.7 nM.

Consider `C[C@H](Nc1ncnc2[nH]cnc12)c1cc2cccc(F)c2nc1-c1ccccc1` [(S)—N-(1-(8-fluoro-2-phenylquinolin-3-yl)ethyl)-9H-purin-6-amine], for which, in assay [2] (setting [3]), the 50% inhibitory concentration (IC50) was 1.42 nM.
